Assays:
[1] = Analgesic activity: Randall and Selitto's test (beer yeast paw, pain threshold); assay type: in vivo, rat
Experimental: This activity was measured by Siegmund's test in mice and Randall and Selitto's test in the rat. Groups of ten male rats each weight 120 to 140 g received by subcutaneous plantar injection 0.05 ml of a 5% aqueous suspension of beer yeast. 2 Hours after this treatment they received the compound under test orally and 1 hour after administration of this compound the paw which had been injected and the contralateral paw were subjected to increasing pressure. The appearance of the pain threshold was noted.

[2] = Laparotomy test; assay type: in vivo, rat; details: as the hydrochloride; for ED50: Rattus norvegicus, ip, intraperitoneal
Experimental: Rats weighing 110 to 130 g each received the product of Example 1 (as the hydrochloride) by intraperitoneal injection. 10 or 30 Minutes after the treatment, the animals are examined to see:
1. If they allow themselves to remain lying on their backs;
3. if they tolerate an incision into the skin; and
4. if they tolerate an incision into the muscle. If an animal submits without reaction it is counted as zero, and if it reacts it is counted as one. The total score is calculated for each dosage. The following table gives the percentage protection and the number of sleeping rats.

[3] = Stimulation of dental pulp in the rabbit; assay type: in vivo
Experimental: 24 Hours before the test, each incisor of the rabbit is drilled 1 mm below the gum to a depth of about 1 mm. The next day, the animals are placed in restraining boxes and stimulating electrodes are placed in position. The threshold of reaction to the electrical stimulation (at 30 Hz; 10 ms; for 1 s) is measured by the munching reaction of the rabbits. The product of Example 1 was administered intravenously and its effect on the pain threshold was measured at regular intervals after treatment.

[4] = Hypnotic activity in rats or mice (loss of righting reflex); assay type: in vivo; details: for % of sleeping animals: mice
Experimental: The compounds under test were administered to rats or mice intraperitoneally. The loss of the righting reflex was noted and the duration of sleep measured objectively with reference to the loss of the righting reflex. The compounds under test were also administered by slow perfusion to dogs. The moment when the dog fell asleep and the duration of sleep was noted.

[5] = Escape test; assay type: in vivo; details: Mus musculus, ip, 0.5 h, read-out: Percentage inhibition (number of attempts to escape)
Experimental: Groups of 8 mice were placed in sub groups of 4 in an enclosure from which they could escape by an inclined plane. The number of attempts to escape during 5 minutes were counted half an hour after intraperitoneal administration of the compound under test.

[6] = Antagonism of convulsions produced by cardiazole; assay type: in vivo; details: Mus musculus, ip, read-out: Percentage inhibition of tonic convulsions
Experimental: Groups of 6 mice received the compound under test 30 minutes before introperitoneal injection of 160 mg/kg of cardiazole. The action of the compound under test on the tonic convulsion phase was observed.

[7] = Action on the activity of noradrenaline in dogs; details: dog, in vivo
[8] = Acute toxicity in the mouse; details: in vivo
[9] = dog, in vivo
Experimental: The product of Example 1 was perfused in the dog at a dosage of 50 mg/minute by the saphena vein. Cardiac arrest was produced by a dose of 344 mg/kg.

[10] = Chronic toxicity in beagle dogs, 3 months; assay type: in vivo, beagle dog; details: 150 mg/kg each day for 3 months
Experimental: Six beagle dogs (3 male and 3 female) received each day for 3 months 150 mg/kg of the product of Example 1.

[11] = Overall result of the pharmacological tests; assay type: in vivo; details: according to the results obtained
Text: The new compounds show these properties in the tests usually used to determine them.

Cc1cccc(Nc2ncccc2C(=O)OCCN2CCOCC2)c1C [Example 1, β-Morpholino ethyl nixylate]
percentage increase of pain threshold ([1]; with yeast, 8 mg/kg orally): 15% | percentage increase of pain threshold ([1]; with yeast, 16 mg/kg orally): 68% | percentage increase of pain threshold ([1]; with yeast, 32 mg/kg orally): 90% | percentage increase of pain threshold ([1]; with yeast, 64 mg/kg orally): 83% | percentage increase of pain threshold ([1]; with yeast, 128 mg/kg orally): 120% | percentage increase of pain threshold ([1]; with yeast, 256 mg/kg orally): 161% | percentage increase of pain threshold ([1]; without yeast, 8 mg/kg orally): 37% | percentage increase of pain threshold ([1]; without yeast, 16 mg/kg orally): 29% | percentage increase of pain threshold ([1]; without yeast, 32 mg/kg orally): 51% | percentage increase of pain threshold ([1]; without yeast, 64 mg/kg orally): 72% | percentage increase of pain threshold ([1]; without yeast, 128 mg/kg orally): 101% | percentage increase of pain threshold ([1]; without yeast, 256 mg/kg orally): 126% | ED50 ([2]; 10 min, 10 min after treatment): 44 mg/kg | ED50 ([2]; 0.5 h, 30 min after treatment): 100 mg/kg | Percentage protection ([2]; 16 mg/kg intraperitoneally, 10 min after treatment, 12 rats): 6% | Number of sleeping rats ([2]; 16 mg/kg intraperitoneally, 10 min after treatment, of 12 rats): 0 | Percentage protection ([2]; 16 mg/kg intraperitoneally, 30 min after treatment, 6 rats): 0% | Number of sleeping rats ([2]; 16 mg/kg intraperitoneally, 30 min after treatment, of 6 rats): 0 | Percentage protection ([2]; 32 mg/kg intraperitoneally, 10 min after treatment, 12 rats): 34% | Number of sleeping rats ([2]; 32 mg/kg intraperitoneally, 10 min after treatment, of 12 rats): 0 | Percentage protection ([2]; 32 mg/kg intraperitoneally, 30 min after treatment, 6 rats): 0% | Number of sleeping rats ([2]; 32 mg/kg intraperitoneally, 30 min after treatment, of 6 rats): 0 | Percentage protection ([2]; 64 mg/kg intraperitoneally, 10 min after treatment, 24 rats): 62% | Number of sleeping rats ([2]; 64 mg/kg intraperitoneally, 10 min after treatment, of 24 rats): 0 | Percentage protection ([2]; 64 mg/kg intraperitoneally, 30 min after treatment, 24 rats): 34% | Number of sleeping rats ([2]; 64 mg/kg intraperitoneally, 30 min after treatment, of 24 rats): 0 | Percentage protection ([2]; 128 mg/kg intraperitoneally, 10 min after treatment, 12 rats): 96% | Number of sleeping rats ([2]; 128 mg/kg intraperitoneally, 10 min after treatment, of 12 rats): 0 | Percentage protection ([2]; 128 mg/kg intraperitoneally, 30 min after treatment, 12 rats): 62% | Number of sleeping rats ([2]; 128 mg/kg intraperitoneally, 30 min after treatment, of 12 rats): 8 | Percentage protection ([2]; 256 mg/kg intraperitoneally, 30 min after treatment, 6 rats): 92% | Number of sleeping rats ([2]; 256 mg/kg intraperitoneally, 30 min after treatment, of 6 rats): 6 | Threshold, % (increase) ([3]; 2.5 mg/kg intravenously, 1h30): 59% | Threshold in volts ([3]; 2.5 mg/kg intravenously, 1h30, pre-treatment 2.26): 3.61 volts | Threshold, % (increase) ([3]; 2.5 mg/kg intravenously, 2h30): 47% | Threshold in volts ([3]; 2.5 mg/kg intravenously, 2h30, pre-treatment 2.26): 3.33 volts | Threshold, % (increase) ([3]; 2.5 mg/kg intravenously, 15 min): 38% | Threshold in volts ([3]; 2.5 mg/kg intravenously, 15 min, pre-treatment 2.26): 3.12 volts | Threshold, % (increase) ([3]; 2.5 mg/kg intravenously, 30 min): 33% | Threshold in volts ([3]; 2.5 mg/kg intravenously, 30 min, pre-treatment 2.26): 3.02 volts | Threshold, % (increase) ([3]; 2.5 mg/kg intravenously, 1 h): 41% | Threshold in volts ([3]; 2.5 mg/kg intravenously, 1 h, pre-treatment 2.26): 3.20 volts | Threshold, % (increase) ([3]; 2.5 mg/kg intravenously, 2 h): 56% | Threshold in volts ([3]; 2.5 mg/kg intravenously, 2 h, pre-treatment 2.26): 3.54 volts | Threshold, % (increase) ([3]; 5 mg/kg intravenously, 1h30): 59% | Threshold in volts ([3]; 5 mg/kg intravenously, 1h30, pre-treatment 2.54): 4.05 volts | Threshold, % (increase) ([3]; 5 mg/kg intravenously, 2h30): 15% | Threshold in volts ([3]; 5 mg/kg intravenously, 2h30, pre-treatment 2.54): 2.94 volts | Threshold, % (increase) ([3]; 5 mg/kg intravenously, 15 min): 95% | Threshold in volts ([3]; 5 mg/kg intravenously, 15 min, pre-treatment 2.54): 4.97 volts | Threshold, % (increase) ([3]; 5 mg/kg intravenously, 30 min): 88% | Threshold in volts ([3]; 5 mg/kg intravenously, 30 min, pre-treatment 2.54): 4.80 volts | Threshold, % (increase) ([3]; 5 mg/kg intravenously, 1 h): 58% | Threshold in volts ([3]; 5 mg/kg intravenously, 1 h, pre-treatment 2.54): 4.02 volts | Threshold, % (increase) ([3]; 5 mg/kg intravenously, 2 h): 30% | Threshold in volts ([3]; 5 mg/kg intravenously, 2 h, pre-treatment 2.54): 3.31 volts | Threshold, % (increase) ([3]; 10 mg/kg intravenously, 1h30): 52% | Threshold in volts ([3]; 10 mg/kg intravenously, 1h30, pre-treatment 2.65): 4.05 volts | Threshold, % (increase) ([3]; 10 mg/kg intravenously, 2h30): 24% | Threshold in volts ([3]; 10 mg/kg intravenously, 2h30, pre-treatment 2.65): 3.29 volts | Threshold, % (increase) ([3]; 10 mg/kg intravenously, 15 min): 74% | Threshold in volts ([3]; 10 mg/kg intravenously, 15 min, pre-treatment 2.65): 4.62 volts | Threshold, % (increase) ([3]; 10 mg/kg intravenously, 30 min): 118% | Threshold in volts ([3]; 10 mg/kg intravenously, 30 min, pre-treatment 2.65): 5.80 volts | Threshold, % (increase) ([3]; 10 mg/kg intravenously, 1 h): 69% | Threshold in volts ([3]; 10 mg/kg intravenously, 1 h, pre-treatment 2.65): 4.49 volts | Threshold, % (increase) ([3]; 10 mg/kg intravenously, 2 h): 40% | Threshold in volts ([3]; 10 mg/kg intravenously, 2 h, pre-treatment 2.65): 3.72 volts | % of sleeping animals ([4]; 50 mg/kg intraperitoneally): 0% | % of sleeping animals ([4]; 75 mg/kg intraperitoneally): 46% | % of sleeping animals ([4]; 100 mg/kg intraperitoneally): 57% | % of sleeping animals ([4]; 125 mg/kg intraperitoneally): 84% | % of sleeping animals ([4]; 200 mg/kg intraperitoneally): 92% | % of sleeping animals ([4]; 250 mg/kg intraperitoneally): 100% | sleep caused ([4]; only this product of those tested): caused sleep | change in vivo at 8 mg/kg ([5]; 8 mg/kg intraperitoneally): 6% | change in vivo at 16 mg/kg ([5]; 16 mg/kg intraperitoneally): 3% | change in vivo at 32 mg/kg ([5]; 32 mg/kg intraperitoneally): -8% | change in vivo at 64 mg/kg ([5]; 64 mg/kg intraperitoneally): -51% | change in vivo at 128 mg/kg ([5]; 128 mg/kg intraperitoneally): -100% | inhibition in vivo at 8 mg/kg ([6]; 8 mg/kg intraperitoneally): 0% | inhibition in vivo at 16 mg/kg ([6]; 16 mg/kg intraperitoneally): 12% | inhibition in vivo at 32 mg/kg ([6]; 32 mg/kg intraperitoneally): 21% | inhibition in vivo at 64 mg/kg ([6]; 64 mg/kg intraperitoneally): 62% | inhibition in vivo at 128 mg/kg ([6]; 128 mg/kg intraperitoneally): 95% | action on the activity of noradrenaline [7]: without action on the activity of noradrenaline | LD50 at 168 h ([8]; ip): 700 mg/kg | LD50 at 168 h ([8]; iv): 110 mg/kg | LD50 at 168 h ([8]; po): 1600 mg/kg | dose producing cardiac arrest [9]: 344 mg/kg | biochemical and hematological characteristics [10]: No modification attributable to the treatment was observed | histological examination of the organs [10]: normal | mortality [10]: No mortality was observed | weights of the dogs [10]: remained normal | activity relative to the other compounds [11]: the most active compound
